Test [1] concerns the target T1, Xanthine dehydrogenase/oxidase (Homo sapiens, UniProt P47989). As to the kind of experiment: Inhibition of human xanthine oxidase.
For test [2], the target named is T1, Xanthine dehydrogenase/oxidase. Nature of the test: Inhibition of human xanthine oxidase at 30 uM.

Structures are written as SMILES.

T1 sequence (P47989 whole entry): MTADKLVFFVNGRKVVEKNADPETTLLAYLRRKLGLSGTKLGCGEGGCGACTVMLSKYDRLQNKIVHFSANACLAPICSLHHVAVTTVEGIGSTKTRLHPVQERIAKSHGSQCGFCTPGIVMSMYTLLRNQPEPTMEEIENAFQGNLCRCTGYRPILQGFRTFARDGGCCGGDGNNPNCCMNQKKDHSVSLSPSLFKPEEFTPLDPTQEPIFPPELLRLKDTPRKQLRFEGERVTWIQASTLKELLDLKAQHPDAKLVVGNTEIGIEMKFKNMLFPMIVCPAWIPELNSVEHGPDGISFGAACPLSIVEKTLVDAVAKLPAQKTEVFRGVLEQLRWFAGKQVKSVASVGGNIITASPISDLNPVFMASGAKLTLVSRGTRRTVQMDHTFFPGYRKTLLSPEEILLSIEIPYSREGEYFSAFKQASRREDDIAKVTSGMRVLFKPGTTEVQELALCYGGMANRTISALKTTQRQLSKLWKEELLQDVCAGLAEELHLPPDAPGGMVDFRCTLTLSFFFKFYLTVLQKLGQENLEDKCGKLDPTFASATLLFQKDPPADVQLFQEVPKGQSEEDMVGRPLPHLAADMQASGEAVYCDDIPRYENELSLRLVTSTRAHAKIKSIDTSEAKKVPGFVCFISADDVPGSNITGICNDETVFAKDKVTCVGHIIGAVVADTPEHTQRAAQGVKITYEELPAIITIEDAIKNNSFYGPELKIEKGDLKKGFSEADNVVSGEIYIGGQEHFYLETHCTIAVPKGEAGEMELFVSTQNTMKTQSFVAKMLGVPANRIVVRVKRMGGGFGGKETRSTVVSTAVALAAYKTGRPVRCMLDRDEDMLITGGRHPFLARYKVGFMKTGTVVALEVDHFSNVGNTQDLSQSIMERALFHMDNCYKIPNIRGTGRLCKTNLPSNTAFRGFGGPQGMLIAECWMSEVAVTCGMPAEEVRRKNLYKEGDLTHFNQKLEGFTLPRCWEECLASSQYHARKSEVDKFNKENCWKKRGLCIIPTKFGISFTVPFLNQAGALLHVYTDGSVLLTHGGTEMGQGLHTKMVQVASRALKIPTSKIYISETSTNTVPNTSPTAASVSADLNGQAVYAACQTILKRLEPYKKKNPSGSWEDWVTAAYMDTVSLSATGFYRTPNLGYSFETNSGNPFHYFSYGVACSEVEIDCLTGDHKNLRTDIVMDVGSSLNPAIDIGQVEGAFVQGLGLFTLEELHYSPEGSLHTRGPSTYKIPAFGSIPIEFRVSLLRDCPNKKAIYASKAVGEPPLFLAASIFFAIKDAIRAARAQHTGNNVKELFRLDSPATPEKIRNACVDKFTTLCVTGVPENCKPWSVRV

As a reminder, the IC50 is the midpoint of a concentration-inhibition curve. Read a low IC50 as higher potency. For the compound `Cn1c(=O)[nH]c2nc[nH]c2c1=O` [1-METHYLXANTHINE], the IC50 in test [1] is > 200 µM.

As a reminder, the inhibition is how much of the control response was suppressed. A lower inhibition goes with a response near the control. In test [2], `Nc1[nH]cnc2ncnc1-2` [ADENINE] registered an inhibition at 30 µM of 61.3%.

For `Nc1ncnc2[nH]ncc12`, in test [1], 30.3 µM corresponded to half-maximal inhibition (IC50). The compound also gave an inhibition at 30 µM in test [2] of 49.8%.

For `Nc1nc(N)c2[nH]cnc2n1` [2,6-DIAMINOPURINE], in test [1], the IC50 is > 200 µM.

In the case of `COc1nc(N)nc2nc[nH]c12` [METHYLGUANINE], the IC50 in test [1] is > 200 µM.

For `Cc1cc2nc[nH]c2cc1C` [DIMEDAZOL], the IC50 in test [1] was > 200 µM.

With `Nc1nc2nc[nH]c2c(=S)[nH]1` [THIOGUANINE], the IC50 in test [1] was 92.4 µM.

`Oc1ncnc2[nH]ncc12` [ALLOPURINOL] came in with an inhibition at 30 µM in test [2] of 93.8%.

For `Nc1ncc2[nH]cnc2n1` [2-AMINOPURINE], the IC50 in test [1] was > 200 µM.

For `Nc1nc(Cl)c2nc[nH]c2n1` [6-CHLOROGUANINE], the IC50 in test [1] is > 200 µM.

Turning to `O=[N+]([O-])c1ccc2[nH]cnc2c1`, in test [1], the IC50 is 86.8 µM.

For the compound `Cc1ccc2[nH]cnc2c1`, the IC50 in test [1] is > 200 µM.

The values above are taken from ChEMBL document CHEMBL1143034, “The screening and characterization of 6-aminopurine-based xanthine oxidase inhibitors” (Bioorg Med Chem, 2007).
